According to patent publication USRE38169E1, “Hyperstabilizing antisense nucleic acid binding agents” (priority 1993, dated 2003):

How the values were obtained:
[1] = system: DNA sense (SEQ ID NO. 1) / DNA-MP antisense duplex (PO-MP); test: Binding of drug to duplex (NACS column, A365/A260); set-up: species or system equine infectious anemia retrovirus; conditions: for Final D/N (CC-1065/nucleotide) Bound to Duplex: PO-MP
Procedure: (§1) Oligodeoxyribonucleotides were obtained by chemical synthesis through standard techniques on an automated synthesizer located in the Department of Veterinary Microbiology and Parasitology at Louisiana State University. Antisense MP and PS oligonucleotides were obtained from commercial sources, as was synthetic sense RNA. Poly(rA) was obtained from Sigma Chemical Co. CC-1065 was obtained from the Upjohn Company. Oligonucleotides (0.075 μmol-P each) were mixed in 0.36 ml 0.01 M Na cacodylate buffer, pH 7.2, with CC-1065 in dimethyl formamide (0.04 ml), or with dimethylformamide only. (Note that “μmol-P” denotes μmoles of phosphate; i.e., μmoles of nucleotide bases, rather than of oligonucleotides per se.) Incubations of complementary strands, with or without drug, were carried out at 37° C. for 4 hr. In the initial experiments, unbound drug was separated from nucleotide duplexes by ethanol precipitation. Equivalent results were obtained by trapping the oligonucleotides and CC-1065 on NACS-52 columns, and washing first with low-salt buffer and then with buffer containing 1M NaCl. Unbound CC-1065 was completely retained on the column. […] Samples prepared in this manner could be directly used for determination of binding of the drug to the nucleic acid (as measured by the A365/A260 ratio), with the extinction of CC-1065 absorbance at 365 nm taken as 48,000, and the extinction of the nucleic acid absorption at 260 nm based on its composition. Similar approaches were used with the drug U-71,184, with an assumed extinction of 32,000 at 365 nm.
(§2) When methyl phosphonate and synthetic RNA were used, the purities of the crude oligonucleotides were taken to be about 30%, based on the data sheet prepared by the supplier. (The remainder comprised primarily truncated sequences.) Appropriate excess amounts of these agents were included in the reactions to ensure helix formation. The corresponding sense or antisense oligonucleotides were maintained at 0.075 μmol-P in the reaction. […] Unpurified materials were used in these preliminary studies because of the relatively high cost of purified oligoribonucleotides. The majority of the contributions to A260 for these samples should be due to material that was not duplexed.
(§3) Table 1 summarizes binding data obtained from incubations of CC-1065 with nucleotides at greater than stoichiometric levels; the levels used in these experiments were 1 drug molecule/10 nucleotide residues, which is equivalent to 4 drug molecules/20-mer duplex. […] There seemed to be no difference in drug binding between antisense oligonucleotides with a PO and those with a PS backbone. Again, the 5′-AGTTA-3′ sequence on the sense strand was presumably the primary target, and the 3′-AAGTA-5′ on the antisense probe was presumably the secondary target.

[2] = system: DNA sense (SEQ ID NO. 1) / DNA-PO antisense (SEQ ID NO. 2) duplex (PO-PO); test: Binding of drug to duplex (NACS column, A365/A260); set-up: species or system equine infectious anemia retrovirus; conditions: for Final D/N (CC-1065/nucleotide) Bound to Duplex: PO-PO
Procedure: as §1, §2, §3

[3] = system: DNA sense (SEQ ID NO. 1) / DNA-PS antisense duplex (PO-PS); test: Binding of drug to duplex (NACS column, A365/A260); set-up: species or system equine infectious anemia retrovirus; conditions: for Final D/N (CC-1065/nucleotide) Bound to Duplex: PO-PS
Procedure: as §1, §2, §3

Salmon Sperm DNA = test: Binding of drug to duplex (NACS column); conditions: saturation; initial CC-1065/nucleotide 0.1; 37° C., 4 hr
Procedure: Oligodeoxyribonucleotides were obtained by chemical synthesis through standard techniques on an automated synthesizer located in the Department of Veterinary Microbiology and Parasitology at Louisiana State University. Antisense MP and PS oligonucleotides were obtained from commercial sources, as was synthetic sense RNA. Poly(rA) was obtained from Sigma Chemical Co. CC-1065 was obtained from the Upjohn Company. Oligonucleotides (0.075 μmol-P each) were mixed in 0.36 ml 0.01 M Na cacodylate buffer, pH 7.2, with CC-1065 in dimethyl formamide (0.04 ml), or with dimethylformamide only. (Note that “μmol-P” denotes μmoles of phosphate; i.e., μmoles of nucleotide bases, rather than of oligonucleotides per se.) Incubations of complementary strands, with or without drug, were carried out at 37° C. for 4 hr. In the initial experiments, unbound drug was separated from nucleotide duplexes by ethanol precipitation. Equivalent results were obtained by trapping the oligonucleotides and CC-1065 on NACS-52 columns, and washing first with low-salt buffer and then with buffer containing 1M NaCl. […] Samples prepared in this manner could be directly used for determination of binding of the drug to the nucleic acid (as measured by the A365/A260 ratio), with the extinction of CC-1065 absorbance at 365 nm taken as 48,000, and the extinction of the nucleic acid absorption at 260 nm based on its composition. […]

[4] = system: DNA sense (SEQ ID NO. 1) / DNA-MP antisense duplex (PO-MP); test: Duplex strand separation temperature (Tm); format: binding, equine infectious anemia retrovirus
Procedure: (§4) Samples for determining Tm were also obtained by the above procedures. […] Thus the effects of this agent on Tm were carried out with Distamycin in solution with the duplexes tested.
(§5) Tm's were determined on a Gilford 2400 Spectrophotometer set at 260 nm, with a 4-chamber Peltier-based temperature controller. Temperature was ramped linearly at 0.5° C./min. Absorbance data were acquired with a 12-bit A/D converter, and data were processed with Lotus 123W and SigmaPlot software. Tm values were determined from the plots as the midpoint of the thermal transitions.

[5] = system: DNA sense (SEQ ID NO. 1) / DNA-PO antisense duplex (PO-PO); test: Duplex strand separation temperature (Tm); format: binding, equine infectious anemia retrovirus
Procedure: as §4, §5

[6] = system: DNA sense (SEQ ID NO. 1) / DNA-PS antisense duplex; test: Duplex strand separation temperature (Tm); format: binding, equine infectious anemia retrovirus
Procedure: as §4, §5

calf thymus DNA = conditions: reported, cited from earlier work
poly(dA)-poly(dT) = conditions: reported, cited from earlier work
[7] = saturation, initial CC-1065/nucleotide 0.1, 37° C., 4 hr
[8] = under the conditions of the experiment

COc1c(O)c2c(c3cc(C(=O)N4CCc5c4c(O)c(OC)c4[nH]c(C(=O)N6CC7CC78C6=CC(=O)c6[nH]cc(C)c68)cc54)[nH]c13)CCN2C(N)=O (centres unmarked) [CC-1065]
Estimate of drug bound per duplex by titration with a range of MP ([1]; MP antisense oligonucleotides): # With MP antisense oligonucleotides, titration with a range of MP gave an estimate of 1 molecule bound per duplex. Precipitation with NaCl and EtOH gave similar results, but recoveries were lower. Single-strand components did not bind CC-1065. | Binding for MP antisense sequences ([1]; MP antisense sequences): about 1 drug molecule/duplex | Final D/N (CC-1065/nucleotide) Bound to Duplex ([1]; Initial D/N 0.025): 0.016 ± 0.0008 | Final D/N (CC-1065/nucleotide) Bound to Duplex ([1]; Initial D/N 0.04, single determination): 0.019^4 | Final D/N (CC-1065/nucleotide) Bound to Duplex ([1]; Initial D/N 0.10): 0.031 ± 0.001 | Approx. No. CC-1065 Bound/20 Base Pairs [1, 7]: ~1 | Final D/N (CC-1065/nucleotide) Bound to Duplex ([2]; Initial D/N 0.01): 0.009 ± 0.0004 | Final D/N (CC-1065/nucleotide) Bound to Duplex ([2]; Initial D/N 0.025): 0.021 ± 0.001 | Final D/N (CC-1065/nucleotide) Bound to Duplex ([2]; Initial D/N 0.04): 0.030 ± 0.0004 | Final D/N (CC-1065/nucleotide) Bound to Duplex ([2]; Initial D/N 0.065): 0.049 ± 0.001 | Final D/N (CC-1065/nucleotide) Bound to Duplex ([2]; Initial D/N 0.10): 0.053 ± 0.002 | Approx. No. CC-1065 Bound/20 Base Pairs ([2]; saturation, initial CC-1065/nucleotide 0.1 (4 drug molecules per duplex), 37° C., 4 hr): ~2 | Final D/N (CC-1065/nucleotide) Bound to Duplex ([3]; Initial D/N 0.01): 0.010 ± 0 | Final D/N (CC-1065/nucleotide) Bound to Duplex ([3]; Initial D/N 0.025): 0.024 ± 0.0005 | Final D/N (CC-1065/nucleotide) Bound to Duplex ([3]; Initial D/N 0.04): 0.032 ± 0.001 | Final D/N (CC-1065/nucleotide) Bound to Duplex ([3]; Initial D/N 0.065): 0.047 ± 0.0005 | Final D/N (CC-1065/nucleotide) Bound to Duplex ([3]; Initial D/N 0.10): 0.049 ± 0 | Approx. No. CC-1065 Bound/20 Base Pairs [3, 7]: ~2 | Approx. No. CC-1065 Bound/20 Base Pairs (Salmon Sperm DNA): ~2 | Tm ([4]; CC-1065 initial D/N = 0.025): 73.0 ± 2.0^4 °C | Tm ([4]; CC-1065 initial D/N = 0.1): 74.0 ± 1.0^4 °C | Duplex Strand Separation Temperature ([4]; DNA / DNA-MP, drug-bound duplex (Table 6)): 74.0 ± 1.04 | Tm Elevation ([4]; PO-MP, highest level of binding obtained): 21.5 °C | Tm ([5]; CC-1065 initial D/N = 0.025, 1M NaCl eluate): 81.7 ± 0.6^4 °C | Tm ([5]; CC-1065 initial D/N = 0.1, minimum Tm estimate (melting not completed)): ≥ 85.3 ± 2.3^4,5 °C | Duplex Strand Separation Temperature ([5]; DNA / DNA-PO, drug-bound duplex (Table 6)): ≥ 85.3 ± 2.3^4 | Tm Elevation ([5]; PO-PO, highest level of binding obtained): 17.3 °C | Tm ([6]; CC-1065 initial D/N = 0.025): 81.3 ± 2.3^4 °C | Tm ([6]; CC-1065 initial D/N = 0.1, minimum Tm estimate): ≥ 84.7 ± 1.5^4,5 °C | Duplex Strand Separation Temperature ([6]; DNA / DNA-PS, drug-bound duplex (Table 6)): ≥ 84.7 ± 1.5^4 | Tm Elevation ([6]; PS-PS, highest level of binding obtained): 20.5 °C | Tm (calf thymus DNA; CC-1065 bound): ~100 °C | Increase in Tm (calf thymus DNA; [8]): over 30 °C | Tm (poly(dA)-poly(dT); CC-1065 bound): ~100 °C | Increase in Tm (poly(dA)-poly(dT); [8]): over 30 °C
